Reference: PubChem BioAssay AID248 (DTP/NCI, 2004)
“And” between values parts separate entries of the source, which are not always exact repeats. Equal values may be shown once. Inconclusive results and toxic doses are left out. No stated cut-off is given here; in the data, active means T/C of 150% or more; inactive means T/C below 125%.

Test system: L1210 leukemia ip in BDF1 mice, survival T/C
Assay: NCI In Vivo Anticancer Drug Screen. Data for tumor model L1210 Leukemia (intraperitoneal) in B6D2F1 (BDF1) mice
Details: endpoint: mean survival time, higher = longer survival
Procedure, shortened: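 In this screen, tumor-bearing mice given compound are compared to those given vehicle, and their survival values are reported as a treated-to-control quotient.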

Measured: T/C

O=C(Nc1ccc(NC(=O)Nc2ccc(C3=NCCN3)cc2)cc1)Nc1ccc(C2=NCCN2)cc1
active: dose: 303.0 mg/kg/injection, schedule: Q01DX Z (ip), vehicle: carboxymethylcellulose (CMC) 160 % of control
inactive: dose: 110.0 mg/kg/injection, schedule: Q01DX Z (ip), vehicle: carboxymethylcellulose (CMC) 100 % of control and 115 % of control | dose: 240.0 mg/kg/injection, schedule: Q01DX Z (oral), vehicle: carboxymethylcellulose (CMC) 98 % of control | dose: 375.0 mg/kg/injection, schedule: Q01DX Z (ip), vehicle: carboxymethylcellulose (CMC) 98 % of control | dose: 455.0 mg/kg/injection, schedule: Q01DX Z (ip), vehicle: carboxymethylcellulose (CMC) 93 % of control | dose: 480.0 mg/kg/injection, schedule: Q01DX Z (oral), vehicle: carboxymethylcellulose (CMC) 104 % of control | dose: 960.0 mg/kg/injection, schedule: Q01DX Z (oral), vehicle: carboxymethylcellulose (CMC) 107 % of control

CNC(C#N)c1ccco1 (stereo not drawn)
inactive: dose: 6.25 mg/kg/injection, schedule: Q04DX003 (ip), vehicle: saline 102 % of control | dose: 12.5 mg/kg/injection, schedule: Q04DX003 (ip), vehicle: saline 95 % of control | dose: 50.0 mg/kg/injection, schedule: Q04DX003 (ip), vehicle: saline 94 % of control

CN(Cc1ccccc1)C(=O)COc1ccc(Cl)c(Cl)c1
inactive: dose: 100.0 mg/kg/injection, schedule: Q01DX001 (ip), vehicle: Klucel (hydroxypropylcellulose) (HPC) 106 % of control | dose: 200.0 mg/kg/injection, schedule: Q01DX001 (ip), vehicle: Klucel (hydroxypropylcellulose) (HPC) 96 % of control | dose: 400.0 mg/kg/injection, schedule: Q01DX001 (ip), vehicle: Klucel (hydroxypropylcellulose) (HPC) 102 % of control

O=C1C(Cl)=C(NCCCCCCNC2=C(Cl)C(=O)c3ccccc3C2=O)C(=O)c2ccccc21
inactive: dose: 100.0 mg/kg/injection, schedule: Q01DX001 (ip), vehicle: saline 106 % of control

CC(=O)Oc1c(C)cc([N+](=O)[O-])cc1[N+](=O)[O-]
inactive: dose: 25.0 mg/kg/injection, schedule: Q04DX003 (ip), vehicle: Klucel (hydroxypropylcellulose) (HPC) 91 % of control | dose: 50.0 mg/kg/injection, schedule: Q04DX003 (ip), vehicle: Klucel (hydroxypropylcellulose) (HPC) 86 % of control

CC1=CC(=O)c2c(O)ccc(O)c2C1=O
inactive: dose: 2.5 mg/kg/injection, schedule: Q04DX003 (ip), vehicle: other 95 % of control | dose: 5.0 mg/kg/injection, schedule: Q01DX001 (ip), vehicle: saline 101 % of control | dose: 5.0 mg/kg/injection, schedule: Q04DX003 (ip), vehicle: other 103 % of control | dose: 10.0 mg/kg/injection, schedule: Q01DX001 (ip), vehicle: saline 97 % of control | dose: 10.0 mg/kg/injection, schedule: Q04DX003 (ip), vehicle: other 94 % of control | dose: 20.0 mg/kg/injection, schedule: Q01DX001 (ip), vehicle: saline 100 % of control | dose: 40.0 mg/kg/injection, schedule: Q01DX001 (ip), vehicle: saline 102 % of control

CC1(C)CC(C(N)=O)C(C)(C)N1O (stereo not drawn)
inactive: dose: 75.0 mg/kg/injection, schedule: Q01DX009 (ip), vehicle: other 104 % of control | dose: 150.0 mg/kg/injection, schedule: Q01DX009 (ip), vehicle: other 101 % of control | dose: 300.0 mg/kg/injection, schedule: Q01DX009 (ip), vehicle: other 100 % of control

CCOC(=O)NNP(=O)(NNC(=O)OCC)c1ccccc1
inactive: dose: 100.0 mg/kg/injection, schedule: Q01DX001 (ip), vehicle: carboxymethylcellulose (CMC) 101 % of control | dose: 100.0 mg/kg/injection, schedule: Q01DX009 (ip), vehicle: carboxymethylcellulose (CMC) 94 % of control | dose: 100.0 mg/kg/injection, schedule: Q04DX002 (ip), vehicle: carboxymethylcellulose (CMC) 98 % of control | dose: 100.0 mg/kg/injection, schedule: Q04DX003 (ip), vehicle: carboxymethylcellulose (CMC) 98 % of control | dose: 200.0 mg/kg/injection, schedule: Q01DX001 (ip), vehicle: carboxymethylcellulose (CMC) 104 % of control | dose: 200.0 mg/kg/injection, schedule: Q01DX009 (ip), vehicle: carboxymethylcellulose (CMC) 94 % of control and 98 % of control | dose: 200.0 mg/kg/injection, schedule: Q04DX002 (ip), vehicle: carboxymethylcellulose (CMC) 91 % of control | dose: 200.0 mg/kg/injection, schedule: Q04DX003 (ip), vehicle: carboxymethylcellulose (CMC) 102 % of control | dose: 400.0 mg/kg/injection, schedule: Q01DX001 (ip), vehicle: carboxymethylcellulose (CMC) 92 % of control | dose: 400.0 mg/kg/injection, schedule: Q01DX009 (ip), vehicle: carboxymethylcellulose (CMC) 108 % of control and 109 % of control | dose: 400.0 mg/kg/injection, schedule: Q04DX002 (ip), vehicle: carboxymethylcellulose (CMC) 94 % of control | dose: 400.0 mg/kg/injection, schedule: Q04DX003 (ip), vehicle: carboxymethylcellulose (CMC) 101 % of control
